Common to all, as to test: DTP human tumour cell line panel, 48 h
Experiment [1] concerns COLO 205 colon.
Experiment [2] deals with DU-145 prostate.
The test system of experiment [3] is EKVX NSCLC.
Experiment [4] deals with HCC-2998 colon.
Experiment [5] deals with IGROV1 ovarian.
Experiment [6] concerns K-562 leukemia.
Experiment [7] concerns NCI-H226 lung.
Experiment [8] deals with NCI-H23 lung.
For experiment [9], the system named is NCI-H460 lung.
Experiment [10] relates to NCI/ADR-RES ovarian.
Experiment [11] deals with RPMI-8226 leukemia.
The test system of experiment [12] is SF-539 CNS.
In experiment [13] the test system is SNB-75 CNS.
Experiment [14] concerns TK-10 renal.
In experiment [15] the test system is UACC-257 melanoma.
The test system of experiment [16] is UACC-62 melanoma.
The test system of experiment [17] is UO-31 renal.

The source of these data is PubChem BioAssay (NCI).

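48-hour exposure; five concentrations; linearly interpolated endpoints. The concentration for full growth arrest is given as TGI.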

Take `COC(=O)[C@@H]1[C@H](OC(C)=O)CCC2[C@@]3(C[C@@H](c4ccoc4)O[C@@H]3OC)[C@H](C)CC[C@]21C(=O)OC` (stereo partly drawn): the TGI in experiment [1], in experiment [2], in [3], in experiment [4], in [5] and in experiment [6] was over 25 µM throughout. Besides, the total growth inhibition concentration (TGI) in experiment [7], in [8], in [9], in experiment [10], in experiment [11] and in experiment [12] was over 25 µM in each case. For the same molecule, the TGI in experiment [13], in experiment [14], in experiment [15], in [16] and in experiment [17] was over 25 µM each time.
On to `COC(=O)[C@H](CCSC)NC(=O)N[C@H](C)c1ccccc1`, for which the TGI in experiment [1], in experiment [2], in experiment [3], in experiment [4], in experiment [5] and in [6] was over 100 µM throughout. Besides, the TGI in [7], in [8], in experiment [9], in [10], in [11] and in [12] was over 100 µM throughout. For the same molecule, the concentration for total growth inhibition (TGI) in experiment [13], in experiment [14], in [15], in [16] and in experiment [17] was over 100 µM in each case.
Consider `CC(C)(C)OC(=O)NC(Cc1ccccc1)OCc1ccccc1` (stereo not drawn), for which the TGI (usually the concentration at which net growth stops) was over 100 µM in experiment [1]; 39.6 µM in [2]; 35.9 µM in [3]; 43.7 µM in experiment [4]; over 10 µM in experiment [5]; 66.2 µM in experiment [6]. For the same molecule, the total growth inhibition concentration (TGI) was found to be 34.4 µM in experiment [7]; 46.3 µM in experiment [8]; 44.7 µM in [9]; 70.7 µM in [10]; 72.6 µM in experiment [11]; 39 µM in experiment [12]. For the same molecule, the TGI was 25.4 µM in [13]; 41.2 µM in experiment [14]; over 10 µM in [15]; 28.7 µM in experiment [16]; 35.6 µM in experiment [17].
Take `CCOC(=O)C1=NOC2(C=C(Br)C(=O)C(Br)=C2)C1`: the TGI in experiment [1] is 2.7 µM; in experiment [2], 17.8 µM; in experiment [3], 5.45 µM; in experiment [4], 3.22 µM; in [5], 20.6 µM; in experiment [6], 6.42 µM. For the same molecule, the TGI is 52.9 µM in [7]; 9.41 µM in experiment [8]; 15 µM in experiment [9]; over 26.6 µM in [10]; 2.56 µM in [11]; 20.2 µM in experiment [12]. The concentration for total growth inhibition (TGI) was 33.4 µM in [13]; 2.27 µM in experiment [14]; 2.71 µM in experiment [15]; 8.54 µM in experiment [16]; 2.51 µM in experiment [17].
Turning to `C=C(Br)CNC(=O)Nc1ccc(Cl)c(Cl)c1`, the concentration for total growth inhibition (TGI) in experiment [1] amounted to 30.6 µM; in [2] it was 89.5 µM; in experiment [3], 78.4 µM; in experiment [4], 44.7 µM; in experiment [5], 36.6 µM; in experiment [6], 90.5 µM. Also, the TGI in experiment [7] was 67.4 µM; in experiment [8], 39.6 µM; in experiment [9], over 100 µM; in [10] it was 43.6 µM; in [11], 50.7 µM; in experiment [12], 39 µM. The TGI in [13] was 51.5 µM; in [14] it was 62.4 µM; in [16] it was 49 µM; in experiment [17], 24.8 µM.
As to `Cc1cc(C)c(-n2[nH]c(=O)n(C)c2=O)c(C)c1`, the TGI in [1], in [2], in experiment [3], in experiment [4], in experiment [5] and in experiment [6] was over 100 µM in each case. Also, the TGI in experiment [7], in experiment [8], in experiment [9], in experiment [10], in experiment [11] and in experiment [12] was over 100 µM each time. The total growth inhibition concentration (TGI) in experiment [13], in [14], in experiment [15], in experiment [16] and in [17] was over 100 µM in each case.
On to `CS(=O)(=O)OCC1CN(S(C)(=O)=O)c2cc(O)ccc21` (stereo not drawn), for which the TGI in experiment [1] came to 5.95 µM; in experiment [2], 10 µM; in [3], 16 µM; in [4] it was 4.47 µM; in experiment [5], 22.4 µM; in [6], 10.3 µM. The concentration for total growth inhibition (TGI) was found to be 12.3 µM in experiment [7]; 6.61 µM in [8]; 10.5 µM in experiment [9]; 19.9 µM in experiment [10]; 12.2 µM in [11]; 7 µM in experiment [12]. In addition, the TGI in [13] came to 7.43 µM; in experiment [14] it was 6.62 µM; in experiment [15] it was 7.72 µM; in experiment [17], 11.1 µM.
Consider `CC1=NN(C(=O)c2ccncc2)C(=O)C1`, for which the total growth inhibition concentration (TGI) in experiment [1], in experiment [2], in experiment [3], in experiment [4], in experiment [5] and in experiment [6] was over 100 µM throughout. In addition, the TGI in [7], in [8], in [9], in experiment [10], in [12] and in experiment [13] was over 100 µM in each case. For the same molecule, the TGI in experiment [14], in experiment [15], in [16] and in experiment [17] was over 100 µM throughout.
